# Assay results as given in patent US7691392B2 (Kosan Biosciences Incorporated, priority 2005, dated 2010).
# “Also recorded” adds a separate entry of the source.
# How the values were obtained:
# [1] = tested on: leukemia cells; conditions: exposure to 17-AAG; cited from earlier work
# [2] = patients treated at 56 mg/m^2 17-AAG; cited from earlier work
# [3] = tested on: NSCLC cells; conditions: exposure to 17-AAG; cited from earlier work
# [4] = tested on: multiple myeloma; assay: Anti-myeloma response (Bladé criteria) in the dose escalating trial; assay type: in vivo, human
# Experimental: The method of the invention was tested in an open-label, dose escalating clinical trial.
# Disease response evaluations were performed following every two cycles of treatment (approximately every 6 weeks). The determination of anti-tumor efficacy in stable or responding patients was based on objective tumor assessments made according to a standardized myeloma response assessment system.
# All patients with responding tumors (CR or PR) were examined to confirm the response 6 weeks after the first documentation of response.
# [5] = daily for 5 days every 3 weeks; cited from earlier work
# [6] = tested on: solid tumors; conditions: adult patients with solid tumors; cited from earlier work
# [7] = tested on: Hsp70; assay: Immunoblot of peripheral blood leukocytes for client proteins; assay type: in vivo, human
# Description: These toxicities included hepatotoxicity and gastrointestinal toxicities. The laboratory correlates included a) surface expression of insulin-like growth factor receptor-1 (IGF-1R) and b), total expression of Akt, Hsp90 and Hsp70. […] Immunoblotting analyses were used to evaluate the total levels of Akt, Hsp90 and Hsp70. […]; and b) correlation of clinical responses to 17-AAG with the degree of modulation of the biomarkers. […] Finally, peripheral blood mononuclear cells were isolated on two occasions (the first and last infusion in Cycle 1, on Days 1 and 11) prior to and 4 hours following the infusion. Cells were examined for change in client protein expression by Western Blot. Client proteins of interest include Hsp70, RAF1, LCK and CDK4 and others as indicated.
# [8] = tested on: MEXF 276 L melanoma cells; conditions: exposure to 17-AAG; cited from earlier work
# [9] = tested on: SKBr3 breast cancer cells; conditions: exposure to 17-AAG; cited from earlier work
# [10] = tested on: Raf-1; conditions: at 24 hours; cited from earlier work
# [11] = tested on: AKT; assay: AKT+ cells in bone marrow aspirates
# [12] = tested on: diffuse GFP positive MM lesions; conditions: survival analysis; cited from earlier work
# [13] = tested on: colon adenocarcinoma cells; conditions: exposure to 17-AAG; cited from earlier work
# [14] = tested on: solid tumors and lymphomas; conditions: patients with solid tumors and lymphomas; cited from earlier work
smiles,measurement,setting,value
"C=CCNC1=C2C[C@@H](C)C[C@H](OC)[C@H](O)[C@@H](C)/C=C(\C)[C@H](OC(N)=O)[C@@H](OC)/C=C\C=C(/C)C(=O)NC(=CC1=O)C2=O [17-AAG, 17-Allylamino-17-demethoxygeldanamycin]",effect on client proteins,[1],down-regulation of intracellular Bcr-Ab1 and c-Raf proteins and reduction of Akt kinase activity
same,Vz,[2],93 L/m^2
same,clearance,[2],19.9 L/h/m^2
same,effect on client proteins,[3],depletion of erbB 1 (EGFR) and erbB2 (p185) levels
same,disease response,"[4]; 150 mg/m^2 twice weekly 2 of 3 weeks, four evaluable patients","One showed a MR; also recorded: one patient had a MR, two had stable disease and one had progressive disease"
same,disease response,"[4]; 220 mg/m^2 twice weekly 2 of 3 weeks, seven evaluable patients",four are stable disease and three are progressive disease; also recorded: four patients had stable disease and three had progressive disease
same,disease response,"[4]; 275 mg/m^2 twice weekly 2 of 3 weeks, three evaluable patients",all three had stable disease
same,disease response,"[4]; 340 mg/m^2 twice weekly 2 of 3 weeks, five evaluable patients",two patients had stable disease and three had progressive disease
same,percent of patients with stable disease,"[4]; 19 evaluable patients, after three or more cycles",58%
same,percent of patients with response (MR),"[4]; 19 evaluable patients, all dose levels",5%
same,reduction of urine M-protein,"[4]; one patient considered a PR, withdrawn for skin rash and wheezing",90%
same,reduction of urine M-protein,"[4]; one patient, 150 mg/m^2, after two cycles (MR), FIG. 12",41%
same,reduction of serum M-spike,"[4]; one patient, 275 mg/m^2, after eight cycles (stable disease), FIG. 13",11%
same,maximum tolerated dose (MTD) and recommended Phase 2 dose,[5],40 mg/m^2
same,objective tumor responses,[6],No objective tumor responses were observed
same,Hsp70 in peripheral blood leukocytes,"[7]; 220 mg/m^2 cohort, following treatment",reactive induction of Hsp70
same,"Hsp70 in PBL, immunoblot","[7]; two patients (275 and 340 mg/m^2), prior to and 4 h after infusion, Day 1 and Day 11",increase of Hsp70
same,effect on client proteins,[8],depletion of Hsp90 and down-regulation of Raf-1 and erbB2
same,effect on client proteins,[9],depletion of erbB2 and destabilization of Raf-1 and mutant p53
same,patients with Raf-1 depletion in tumor biopsies,[10],4 out of 6
same,percent of AKT+ cells over total BM cells,"[11]; Day 11 of treatment (more than 20% prior to treatment), p=0.057, FIG. 10",less than 10%
same,decrease in percent of AKT+ cells,[11]; Day 11 versus prior to treatment,more than 10%
same,Akt / pAKT in BMAs,"[11]; screening versus Day 11, 150 and 220 mg/m^2 doses",decreased Akt; also recorded: decrease in pAKT
same,median overall survival,[12],significantly prolonged median overall survival
same,effect on client proteins,[13],"depletion of Raf-1, c-Akt, and Erk1/2"
same,objective tumor responses,[14],No objective tumor responses have been observed
